Here are results for 19 compounds from patent US11919902B2, “Aryl-bipyridine amine derivatives as phosphatidylinositol phosphate kinase inhibitors” (HiberCell, Inc., priority 2017, dated 2024).

The structures appear in SMILES notation.

The target in assay [1] is T1, PIP4K2A (full length protein, SignalChem) (Homo sapiens, UniProt P48426).
T1 construct: 4 nM PIP4K2A (full length protein, SignalChem); purchased SignalChem
T1 sequence (P48426 1-406): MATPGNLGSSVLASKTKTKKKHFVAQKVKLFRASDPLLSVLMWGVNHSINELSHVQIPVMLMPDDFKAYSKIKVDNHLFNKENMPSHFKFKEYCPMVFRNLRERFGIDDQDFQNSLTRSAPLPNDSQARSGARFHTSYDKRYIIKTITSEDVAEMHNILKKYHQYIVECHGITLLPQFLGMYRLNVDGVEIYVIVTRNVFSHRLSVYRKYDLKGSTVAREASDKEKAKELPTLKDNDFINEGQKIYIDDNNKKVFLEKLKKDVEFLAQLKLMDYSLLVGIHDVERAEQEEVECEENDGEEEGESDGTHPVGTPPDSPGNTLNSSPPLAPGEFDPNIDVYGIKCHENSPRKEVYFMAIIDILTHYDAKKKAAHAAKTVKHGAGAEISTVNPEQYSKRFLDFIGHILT
The experiment in a line: Kinase Assay PIP4K2 A (Sprint); ADP-Glo biochemical assay. Particulars: Table 2; compounds listed under IC50 range headings. An outline of the steps: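 Compounds (10-point, 3-fold dilutions) were pre-incubated 15 min at RT with an enzyme/substrate mix of 4 nM full-length PIP4K2A and 100 μM PI(5)P diC8 in 20 mM MOPS pH 7.2, 25 mM MgCl2, 0.005% Tween 20. A 60 μM ATP solution was added, reaction 1 h RT; ADP read by ADP-Glo luminescence, IC50 fitted from % inhibition vs DMSO.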
(ADP-Glo first removes unused ATP, then detects ADP through luciferase.)

Assay [2] deals with T2, GST tagged PIP4KtypeIIB (Homo sapiens, UniProt P78356).
T2 construct: made in house; host or cells: E. coli
T2 sequence (P78356 1-416): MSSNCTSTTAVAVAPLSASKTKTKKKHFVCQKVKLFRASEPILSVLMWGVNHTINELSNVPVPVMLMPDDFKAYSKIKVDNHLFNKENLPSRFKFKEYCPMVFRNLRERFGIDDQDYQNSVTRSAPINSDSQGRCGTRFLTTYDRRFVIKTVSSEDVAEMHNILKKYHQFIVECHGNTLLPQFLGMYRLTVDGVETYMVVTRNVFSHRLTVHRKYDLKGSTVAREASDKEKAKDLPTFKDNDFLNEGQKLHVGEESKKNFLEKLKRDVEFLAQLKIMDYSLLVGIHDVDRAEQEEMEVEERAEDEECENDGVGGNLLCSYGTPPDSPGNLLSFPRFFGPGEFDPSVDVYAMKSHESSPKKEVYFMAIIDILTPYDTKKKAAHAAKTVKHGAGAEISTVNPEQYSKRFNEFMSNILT
The experiment in a line: Trans-FI P kinase assay PIP4K2B (PIP4KtypeIIB inhibition assay). Type of assay: biochemical. The following applies: Table 4; compounds listed under IC50 range headings; 100 uM GTP, 5 nM PIP4KIIB; read-out: Trans-FI P kinase assays: PIP4K2B IC50. An outline of the steps:
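Purified GST-PIP4KIIB (5 nM final), 1 h preincubation with compound at 27 C, then 2 h reaction with 100 uM GTP and 80 uM PI5P plus DOPE carrier lipid in pH 7.3 HEPES/MgCl2/Triton buffer with 5% DMSO. GDP read by Transcreener FI fluorescence against a calibration curve; IC50 from % no-inhibitor activity vs log concentration.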

In assay [3] the target is T3, GST tagged PIP4KtypeIIA (Homo sapiens, UniProt P48426).
T3 construct: made in house; host or cells: E. coli
T3 sequence (P48426 1-406): T1 sequence (P48426 1-406)
The experiment in a line: ADP-glo kinase assay PIP4K 2A (PIP4KtypeIIA inhibition assay). Particulars: Table 3; compounds listed under IC50 range headings; 10 uM ATP, 0.5 nM PIP4KIIA. In kind it is biochemical. An outline of the steps:
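E. coli-expressed GST-PIP4KtypeIIA (0.5 nM final) was preincubated 1 h at 27 °C with compound (up to 4.8 μM, 5% DMSO) in PI5P/DOPE lipid in 50 mM HEPES pH 7.3 with 10 mM MgCl2. The reaction was started with 10 μM ATP (final) and run 1 h. ADP was read by ADP-Glo luminescence via a calibration curve, and IC50 was taken from % residual activity.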

`CN(C)C(=O)c1ccc(-c2cc(-c3ccnc4cccc(C#N)c34)cnc2N)nc1` [Example 118, 2′-amino-5′-(5-cyanoquinolin-4-yl)-N,N-dimethyl-[2,3′-bipyridine]-5-carboxamide]: the IC50 was below 5000 nM in assay [1], above 5000 nM in assay [2] and above 5000 nM in assay [3].

On to `CN(C)C(=O)c1ccc(-c2cc(-c3cccnc3N)cnc2N)nc1` [Example 120, 2′,2″-diamino-N,N-dimethyl-[2,3′:5′,3″-terpyridine]-5-carboxamide], for which the IC50 in assay [1] is below 5000 nM; in assay [2] it was above 5000 nM; in assay [3], above 5000 nM.

Take `CN(C)C(=O)c1ccc(-c2cc(-c3cnc4c(c3)c(-c3cccnc3)nn4C)cnc2N)nc1` [Example 123, 2′-amino-N,N-dimethyl-5′-(1-methyl-3-(pyridin-3-yl)-1H-pyrazolo[3,4-b]pyridin-5-yl)-[2,3′-bipyridine]-5-carboxamide]: the IC50 in assay [1] was 100 to 1000 nM; in assay [2] it was above 5000 nM; in assay [3], 1000 to 2500 nM.

With `CN(C)C(=O)c1ccc(-c2cc(-c3cnc4c(c3)c(-c3cncnc3)nn4C)cnc2N)nc1` [Example 124, 2′-amino-N,N-dimethyl-5′-(1-methyl-3-(pyrimidin-5-yl)-1H-pyrazolo[3,4-b]pyridin-5-yl)-[2,3′-bipyridine]-5-carboxamide], the IC50 in assay [1] was 1000 to 2500 nM; in assay [2], above 5000 nM; in assay [3] it was above 5000 nM.

Take `CN(C)C(=O)c1ccc(-c2cc(-c3cnc4c(c3)c(-c3cncs3)cn4C)cnc2N)nc1` [Example 125, 2′-amino-N,N-dimethyl-5′-(1-methyl-3-(thiazol-5-yl)-1H-pyrrolo[2,3-b]pyridin-5-yl)-[2,3′-bipyridine]-5-carboxamide]: the IC50 in assay [1] is 100 to 1000 nM; in assay [2], 2500 to 5000 nM; in assay [3], 1 to 10 nM.

Take `COC(=O)c1cc2c(-c3cnc(N)c(-c4ccc(C(=O)N(C)C)cn4)c3)ccnc2[nH]1` [Example 126, methyl 4-(2′-amino-5-(dimethylcarbamoyl)-[2,3′-bipyridin]-5′-yl)-1H-pyrrolo[2,3-b]pyridine-2-carboxylate]: the half-maximal inhibitory concentration (IC50) in assay [1] fell in the range of 5 to 100 nM; in assay [2], 10 to 100 nM; in assay [3], 10 to 100 nM.

Take `CN(C)C(=O)c1ccc(-c2cc(-c3ccnc4[nH]c(C(=O)N(C)C)cc34)cnc2N)nc1` [Example 127, 4-(2′-amino-5-(dimethylcarbamoyl)-[2,3′-bipyridin]-5′-yl)-N,N-dimethyl-1H-pyrrolo[2,3-b]pyridine-2-carboxamide]: the figures for the IC50 in assay [1], in assay [2] and in assay [3] were 5 to 100 nM, 10 to 100 nM and 100 to 1000 nM, respectively.

With `CN(C)C(=O)c1ccc(-c2cc(-c3ccnc4[nH]c(C(=O)N5CCOCC5)cc34)cnc2N)nc1` [Example 128, 2′-amino-N,N-dimethyl-5′-(2-(morpholine-4-carbonyl)-1H-pyrrolo[2,3-b]pyridin-4-yl)-[2,3′-bipyridine]-5-carboxamide], the IC50 in assay [1] was in the range of 100 to 1000 nM; in assay [2], 100 to 1000 nM; in assay [3] it was 1000 to 2500 nM.

Take `CN(C)C(=O)c1ccc(-c2cc(-c3ccnc4[nH]c(C(=O)N5CC(O)C5)cc34)cnc2N)nc1` [Example 129, 2′-amino-5′-(2-(3-hydroxyazetidine-1-carbonyl)-1H-pyrrolo[2,3-b]pyridin-4-yl)-N,N-dimethyl-[2,3′-bipyridine]-5-carboxamide]: the IC50 in assay [1], in assay [2] and in assay [3] was 100 to 1000 nM each time.

As to `CN(C)C(=O)c1ccc(-c2cc(-c3ccnc4[nH]c(C(=O)N5CC(C(N)=O)C5)cc34)cnc2N)nc1` [Example 130, 2′-amino-5′-(2-(3-carbamoylazetidine-1-carbonyl)-1H-pyrrolo[2,3-b]pyridin-4-yl)-N,N-dimethyl-[2,3′-bipyridine]-5-carboxamide], the IC50 in assay [1], in assay [2] and in assay [3] was 100 to 1000 nM each time.

Turning to `CC(C)CNC(=O)c1cc2c(-c3cnc(N)c(-c4ccc(C(=O)N(C)C)cn4)c3)ccnc2[nH]1` [Example 131, 4-(2′-amino-5-(dimethylcarbamoyl)-[2,3′-bipyridin]-5′-yl)-N-isobutyl-1H-pyrrolo[2,3-b]pyridine-2-carboxamide], the IC50 in assay [1] lay in the range of 100 to 1000 nM; in assay [2] it was 10 to 100 nM; in assay [3], 100 to 1000 nM.

With `COCCNC(=O)c1cc2c(-c3cnc(N)c(-c4ccc(C(=O)N(C)C)cn4)c3)ccnc2[nH]1` [Example 132, 4-(2′-amino-5-(dimethylcarbamoyl)-[2,3′-bipyridin]-5′-yl)-N-(2-methoxyethyl)-1H-pyrrolo[2,3-b]pyridine-2-carboxamide], the results for the half-maximal inhibitory concentration (IC50) in assay [1], in assay [2] and in assay [3] were 100 to 1000 nM, 10 to 100 nM and 100 to 1000 nM, respectively.

Consider `CN(C)C(=O)c1ccc(-c2cc(-c3ccnc4[nH]c(C(=O)NCc5ccccc5)cc34)cnc2N)nc1` [Example 134, 4-(2′-amino-5-(dimethylcarbamoyl)-[2,3′-bipyridin]-5′-yl)-N-benzyl-1H-pyrrolo[2,3-b]pyridine-2-carboxamide], for which the results for the IC50 in assay [1], in assay [2] and in assay [3] were 5 to 100 nM, 10 to 100 nM and 100 to 1000 nM, respectively.

On to `CN(C)C(=O)c1ccc(-c2cc(-c3ccnc4[nH]c(C(=O)NCc5ccncc5)cc34)cnc2N)nc1` [Example 135, 4-(2′-amino-5-(dimethylcarbamoyl)-[2,3′-bipyridin]-5′-yl)-N-(pyridin-4-ylmethyl)-1H-pyrrolo[2,3-b]pyridine-2-carboxamide], for which the values for the IC50 in assay [1], in assay [2] and in assay [3] were 5 to 100 nM, 10 to 100 nM and 100 to 1000 nM, respectively.

`CN(C)C(=O)c1ccc(-c2cc(-c3ccnc4[nH]c(C(=O)NCc5cccnc5)cc34)cnc2N)nc1` [Example 136, 4-(2′-amino-5-(dimethylcarbamoyl)-[2,3′-bipyridin]-5′-yl)-N-(pyridin-3-ylmethyl)-1H-pyrrolo[2,3-b]pyridine-2-carboxamide]: the IC50 is 5 to 100 nM in assay [1], 10 to 100 nM in assay [2] and 100 to 1000 nM in assay [3].

Turning to `CN(C)C(=O)c1ccc(-c2cc(-c3ccnc4[nH]c(C(=O)NCC(F)(F)F)cc34)cnc2N)nc1` [Example 138, 4-(2′-amino-5-(dimethylcarbamoyl)-[2,3′-bipyridin]-5′-yl)-N-(2,2,2-trifluoroethyl)-1H-pyrrolo[2,3-b]pyridine-2-carboxamide], the IC50 in assay [1] is 100 to 1000 nM; in assay [2], 10 to 100 nM; in assay [3] it was 100 to 1000 nM.

For the compound `Nc1ncc(-c2ccnc3[nH]c(C(=O)NCC(F)(F)F)cc23)cc1-c1ccc(C(=O)NCC(F)(F)F)cn1` [Example 139, 4-(2′-amino-5-((2,2,2-trifluoroethyl)carbamoyl)-[2,3′-bipyridin]-5′-yl)-N-(2,2,2-trifluoroethyl)-1H-pyrrolo[2,3-b]pyridine-2-carboxamide], the IC50 is below 5000 nM in assay [1], 2500 to 5000 nM in assay [2] and above 5000 nM in assay [3].

As for `CN(C)C(=O)c1ccc(-c2cc(-c3ccnc4[nH]c(C(=O)N5CCNCC5)cc34)cnc2N)nc1` [Example 140, 2′-amino-N,N-dimethyl-5′-(2-(piperazine-1-carbonyl)-1H-pyrrolo[2,3-b]pyridin-4-yl)-[2,3′-bipyridine]-5-carboxamide], the IC50 in assay [1], in assay [2] and in assay [3] was 100 to 1000 nM in each case.

On to `COc1ncc(-c2cncc(-c3ccc(N4CCCC4=O)cc3)c2)c2cn(C)nc12` [Example 157, 1-[4-[5-(7-methoxy-2-methyl-pyrazolo[3,4-c]pyridin-4-yl)-3-pyridyl]phenyl]pyrrolidin-2-one], for which the IC50 in assay [1], in assay [2] and in assay [3] was 100 to 1000 nM throughout.

One may read the IC50 as the concentration that gives 50% inhibition.
